The experiment concerns MDA-MB-231 cells. Briefly: Spheroid formation, hanging drop method. Conditions: before trituration. Type of experiment: cell-based, human. How it is done: FIG. 6: IODVA1 inhibits cell-substratum and cell-cell interactions. (A) IODVA1 impedes spreading of MCF7 and MDA-MB-231 cells on fibronectin. MCF7, T47D, and MDA-MB-231 cells were incubated on fibronectin coated coverslips for 10 min, then further incubated with the indicated concentrations of IODVA1 for 30 min in serum-free media, fixed and observed by bright field microscopy. Areas of single cells were calculated from 6 random fields (no less than 300 cells total per treatment group). Results shown are mean±s.e.m. of a single experiment and are representative of three independent experiments. (B) Effects of IODVA1 treatment on spheroid formation in MCF10A, MCF7, T47D, and MDA-MB-231 cells. […] Aggregates and spheroids were dissociated with accutase and trituration, and the number of live cells was determined by trypan blue exclusion. […]
Spheroids were formed by the hanging drop method or using ultra-low attachment (ULA) plates (Corning). […] Spheroid formation was monitored daily and imaged using EVOS microscope (Life Technologies). For assessment of attachment-free proliferation, the contents of the well were transferred into an Eppendorf tube, centrifuged at 100×g for 5 min, dissociated into a single cell suspension using trituration and Accutase (Invitrogen) treatment at room temperature and counted using trypan blue exclusion.

Regarding `OC1(c2ccccn2)N=C(Nc2nc3ccccc3[nH]2)N=C1c1ccccn1` (stereo not shown) [IODVA1, (Z)-2-((1H-benzo[d]imidazol-2-yl)imino)-4,5-di(pyridin-2-yl)-2,5-dihydro-1H-imidazol-5-ol], the aggregate formation result is reported as “not affected”.

For the origin of these results see patent US11564913B2, “Compositions and methods for treating cancer” (Children's Hospital Medical Center, priority 2019, dated 2023).
